Tests used:
DhaA.WT = DhaA.WT (Rhodococcus rhodochrous, UniProt P0A3G2); assay: Binding of labeled chloroalkane substrates to wild type DhaA
Description: (§1) Carboxytetramethylrhodamine-C10H21NO2—Cl, carboxyfluorescein-C10H21NO2—Cl, and 5-carboxy-X-rhodamine-C10H21NO2—Cl bound to DhaA.H272F but not to DhaA.WT. Biotin-C10H21NO2—Cl bound to DhaA.H272F but not to DhaA.WT.

DhaA.H272F = DhaA.H272F (Rhodococcus rhodochrous, UniProt P0A3G2, H272F); assay: Binding of labeled chloroalkane substrates to DhaA.H272F
Description: as §1

streptavidin = streptavidin (Streptomyces avidinii, UniProt P22629); conditions: surface plasmon resonance; cited from earlier work
[1] = target: cyclic AMP dependent protein kinase catalytic subunit (Homo sapiens, UniProt P17612); conditions: cited from earlier work
[2] = target: catalytic subunit of protein kinase A (Homo sapiens, UniProt P17612); conditions: cited from earlier work

| Compound | binding to DhaA.WT (DhaA.WT) | binding to DhaA.H272F (DhaA.H272F) | further results |
| --- | --- | --- | --- |
| 5-carboxy-X-rhodamine-C10H21NO2—Cl | not | bound | – |
| O=C(CCCC[C@@H]1SC[C@@H]2NC(=O)N[C@@H]21)NCCOCCOCCCCCCCl [Biotin-C10H21NO2—Cl] | not | bound | – |
| O=C(O)CCCC[C@@H]1SC[C@@H]2NC(=O)N[C@@H]21 [biotin] | – | – | on-rate for biotin-streptavidin interaction (streptavidin): 5e+06 M⁻¹ s⁻¹ |
| O=C(NCCOCCOCCCCCCCl)c1ccc(-c2c3ccc(=O)cc-3oc3cc(O)ccc23)c(C(=O)O)c1 [carboxyfluorescein-C10H21NO2—Cl] | not | bound | – |
| Carboxytetramethylrhodamine-C10H21NO2—Cl | not | bound | – |
| LRRASLG | – | – | reduction of activity on addition of kinase catalytic subunit [1]: 30% |
| RRFS: Photinus pyralis luciferase with valine 217 mutated to arginine generating site RRFS (Sala-Newby et al.) | – | – | decrease of activity when phosphorylated [2]: up to 80% |
